Earlier results in patent US20080057123A1, “Controlled Release Formulations” (Jagotec AG, priority 2006, published 2008).

solubility in ethanol (ethanol): soluble
solubility in water (water): practically insoluble
SMILES: COC(=O)C1=C(C)NC(C)=C(C(=O)OCC(C)C)C1c1ccccc1[N+](=O)[O-] (centres unmarked) [Nisoldipine]
